The record followed here is PubChem BioAssay AID248 (DTP/NCI, 2004).

The structures appear in SMILES notation. “And” between values parts separate entries of the source, which are not always exact repeats. Equal values may be shown once. Toxic doses and inconclusive results are not listed.

The experiment relates to L1210 leukemia ip in BDF1 mice, survival T/C. Kind of experiment: NCI In Vivo Anticancer Drug Screen. Data for tumor model L1210 Leukemia (intraperitoneal) in B6D2F1 (BDF1) mice. As to conditions: endpoint: mean survival time, higher = longer survival. In a few lines: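 Mice bearing the transplanted tumor received compound or vehicle. Survival of the treated group was divided by that of the vehicle-treated control group to give the ratio.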

Setting [1] is: dose: 100.0 mg/kg/injection, schedule: Q04DX003 (ip), vehicle: saline.
[2] abbreviates: dose: 200.0 mg/kg/injection, schedule: Q04DX003 (ip), vehicle: saline.
Where [3] appears, read: dose: 100.0 mg/kg/injection, schedule: Q01DX001 (ip), vehicle: Klucel (hydroxypropylcellulose) (HPC).
Where [4] appears, read: dose: 200.0 mg/kg/injection, schedule: Q01DX001 (ip), vehicle: Klucel (hydroxypropylcellulose) (HPC).
The mark [5] stands for this setting: dose: 400.0 mg/kg/injection, schedule: Q01DX001 (ip), vehicle: Klucel (hydroxypropylcellulose) (HPC).
[6] abbreviates: dose: 100.0 mg/kg/injection, schedule: Q04DX003 (ip), vehicle: saline with Tween-80.
The mark [7] stands for this setting: dose: 200.0 mg/kg/injection, schedule: Q04DX003 (ip), vehicle: saline with Tween-80.
The mark [8] stands for this setting: dose: 400.0 mg/kg/injection, schedule: Q04DX003 (ip), vehicle: saline with Tween-80.
Setting [9] is: dose: 75.0 mg/kg/injection, schedule: Q01DX001 (ip), vehicle: saline.
The mark [10] stands for this setting: dose: 150.0 mg/kg/injection, schedule: Q01DX001 (ip), vehicle: saline.
Setting [11] is: dose: 100.0 mg/kg/injection, schedule: Q01DX009 (ip), vehicle: saline with Tween-80.
Where [12] appears, read: dose: 200.0 mg/kg/injection, schedule: Q01DX009 (ip), vehicle: saline with Tween-80.
Where [13] appears, read: dose: 100.0 mg/kg/injection, schedule: Q04DX003 (ip), vehicle: Klucel (hydroxypropylcellulose) (HPC).
[14] abbreviates: dose: 200.0 mg/kg/injection, schedule: Q04DX003 (ip), vehicle: Klucel (hydroxypropylcellulose) (HPC).
The mark [15] stands for this setting: dose: 400.0 mg/kg/injection, schedule: Q04DX003 (ip), vehicle: Klucel (hydroxypropylcellulose) (HPC).

With `CC1(COCCOCC2(C)CO2)CO1` (centres undefined), the T/C by setting is: under setting [1], 97 % of control; (dose: 180.0 mg/kg/injection, schedule: Q01DX009 (ip), vehicle: saline) 106 % of control and 108 % of control; under setting [2], 103 % of control; (dose: 266.0 mg/kg/injection, schedule: Q01DX009 (ip), vehicle: saline) 112 % of control; (dose: 400.0 mg/kg/injection, schedule: Q01DX009 (ip), vehicle: saline) 150 % of control.
With `CCN=C(c1ccc(NC(=O)c2ccc(C(=O)Nc3ccc(C(=NCC)N(CC)C(=O)NCC(=O)OCC)cc3)cc2)cc1)N(CC)C(=O)NCC(=O)OCC`, the T/C is, setting by setting: (dose: 3.12 mg/kg/injection, schedule: Q01DX015 (ip), vehicle: methylcellulose (MC)) 109 % of control; (dose: 12.5 mg/kg/injection, schedule: Q01DX015 (ip), vehicle: methylcellulose (MC)) 155 % of control; (dose: 25.0 mg/kg/injection, schedule: Q01DX015 (ip), vehicle: methylcellulose (MC)) 101 % of control.
On to `O=c1[nH]c(-c2ccccc2)c(CO)c(=O)[nH]1`, for which the T/C runs as follows: (dose: 75.0 mg/kg/injection, schedule: Q04DX003 (ip), vehicle: Klucel (hydroxypropylcellulose) (HPC)) 103 % of control; under setting [3], 96 % of control; (dose: 150.0 mg/kg/injection, schedule: Q04DX003 (ip), vehicle: Klucel (hydroxypropylcellulose) (HPC)) 97 % of control; under setting [4], 102 % of control; (dose: 300.0 mg/kg/injection, schedule: Q04DX003 (ip), vehicle: Klucel (hydroxypropylcellulose) (HPC)) 105 % of control; under setting [5], 109 % of control.
As to `C=CCNC(=O)C1C2C=CC(C2)C1C(=O)O` (centres undefined), the T/C runs as follows: under setting [6], 98 % of control; under setting [7], 104 % of control; under setting [8], 98 % of control.
On to `COc1ccc(-c2c(CO)cc(OC)c(OC)c2OC)c(CO)c1`, for which the T/C under setting [9] is 99 % of control; the T/C under setting [10] is 99 % of control; the T/C (dose: 300.0 mg/kg/injection, schedule: Q01DX001 (ip), vehicle: saline) is 92 % of control.
With `COc1ccccc1CC(C)(C)O`, the T/C reads like this: (dose: 50.0 mg/kg/injection, schedule: Q01DX009 (ip), vehicle: saline with Tween-80) 98 % of control; under setting [11], 95 % of control; under setting [12], 101 % of control.
Consider `FC1=C(F)C2(F)C3CCC(O3)C2(F)C(Br)=C1F` (centres undefined), for which the T/C is 99 % of control under setting [3]; 101 % of control under setting [13]; 91 % of control under setting [4]; 101 % of control under setting [14]; 100 % of control under setting [5]; 98 % of control under setting [15].
In the case of `CCC1C(=O)OC2(CO)C(=O)N(C)CCC12` (centres undefined), the T/C (dose: 15.6 mg/kg/injection, schedule: Q01DX001 (ip), vehicle: saline) is 103 % of control; the T/C (dose: 31.3 mg/kg/injection, schedule: Q01DX001 (ip), vehicle: saline) is 103 % of control; the T/C (dose: 62.5 mg/kg/injection, schedule: Q01DX001 (ip), vehicle: saline) is 91 % of control; the T/C (dose: 125.0 mg/kg/injection, schedule: Q01DX001 (ip), vehicle: saline) was 94 % of control.
On to `Clc1nc(I)c(Cl)c(C(Cl)(Cl)Cl)n1`, for which the T/C was 89 % of control (dose: 12.5 mg/kg/injection, schedule: Q01DX001 (ip), vehicle: Klucel (hydroxypropylcellulose) (HPC)); 93 % of control (dose: 25.0 mg/kg/injection, schedule: Q01DX001 (ip), vehicle: Klucel (hydroxypropylcellulose) (HPC)); 89 % of control (dose: 50.0 mg/kg/injection, schedule: Q01DX001 (ip), vehicle: Klucel (hydroxypropylcellulose) (HPC)).
As for `CCCCCCCCCCCCOCC[N+](C/C=C/c1ccccc1)(CCO)CCO`, the T/C runs as follows: (dose: 6.25 mg/kg/injection, schedule: Q01DX009 (ip), vehicle: saline with Tween-80) 93 % of control; (dose: 12.5 mg/kg/injection, schedule: Q01DX009 (ip), vehicle: saline with Tween-80) 95 % of control.
As for `C/C(=C/C=C(/C)C(=O)O)C(=O)O`, the T/C is 95 % of control (dose: 100.0 mg/kg/injection, schedule: Q01DX001 (ip), vehicle: carboxymethylcellulose (CMC)); 101 % of control under setting [13]; 95 % of control (dose: 200.0 mg/kg/injection, schedule: Q01DX001 (ip), vehicle: carboxymethylcellulose (CMC)); 115 % of control under setting [14]; 98 % of control (dose: 400.0 mg/kg/injection, schedule: Q01DX001 (ip), vehicle: carboxymethylcellulose (CMC)); 93 % of control under setting [15].
For the compound `NNC(=O)CNc1cccc(F)c1`, the T/C is, setting by setting: (dose: 100.0 mg/kg/injection, schedule: Q04DX002 (ip), vehicle: Klucel (hydroxypropylcellulose) (HPC)) 105 % of control; (dose: 200.0 mg/kg/injection, schedule: Q04DX002 (ip), vehicle: Klucel (hydroxypropylcellulose) (HPC)) 119 % of control.
On to `CC(C)CCNc1ncnc2nc[nH]c12`, for which the T/C is, setting by setting: under setting [9], 90 % of control; under setting [10], 92 % of control.
Consider `O=S(=O)(O)c1ccccn1`, for which the T/C under setting [1] is 98 % of control and the T/C under setting [2] is 93 % of control.
Turning to `CCCCNN`, the T/C is 96 % of control (dose: 75.0 mg/kg/injection, schedule: Q01DX001 (ip), vehicle: other) and 113 % of control (dose: 150.0 mg/kg/injection, schedule: Q01DX001 (ip), vehicle: other).
In the case of `O=[N+]([O-])c1ccccc1O`, the T/C was 98 % of control under setting [11]; 107 % of control under setting [12]; 100 % of control (dose: 400.0 mg/kg/injection, schedule: Q01DX009 (ip), vehicle: saline with Tween-80).
For `CC(C)N(C(=S)[S-])C(C)C.CC(C)N(C(=S)[S-])C(C)C.[Zn]`, the T/C runs as follows: (dose: 37.5 mg/kg/injection, schedule: Q01DX009 (ip), vehicle: saline) 89 % of control; (dose: 75.0 mg/kg/injection, schedule: Q01DX001 (ip), vehicle: acetone) 97 % of control; (dose: 75.0 mg/kg/injection, schedule: Q01DX009 (ip), vehicle: saline) 90 % of control; (dose: 75.0 mg/kg/injection, schedule: Q04DX003 (ip), vehicle: saline) 101 % of control; (dose: 150.0 mg/kg/injection, schedule: Q01DX001 (ip), vehicle: acetone) 92 % of control; (dose: 150.0 mg/kg/injection, schedule: Q01DX009 (ip), vehicle: saline) 86 % of control. The T/C was 90 % of control (dose: 150.0 mg/kg/injection, schedule: Q04DX003 (ip), vehicle: saline); 93 % of control (dose: 300.0 mg/kg/injection, schedule: Q01DX001 (ip), vehicle: acetone); 86 % of control (dose: 300.0 mg/kg/injection, schedule: Q04DX003 (ip), vehicle: saline).
Turning to `CC1(C)COP(Oc2ccccc2)OC1`, the T/C was 100 % of control under setting [11]; 107 % of control under setting [6]; 97 % of control under setting [12]; 103 % of control under setting [7]; 107 % of control under setting [8].
